From publication PMC12615863, “Improving GRPR-targeting peptides for radiotheranostics application: insights from chelator modifications and α-methyl-L tryptophan substitution” (EJNMMI Radiopharmacy and Chemistry, 2025)
Like-named read-outs stand apart in the source and are kept apart here.

What was measured:
PC-3 cells = assay: In vitro GRPR specificity assay (uptake with or without NOTA-PEG2-RM26 block); assay type: cell-based, human
Method: After discarding the medium, the cells were washed with cold (4 °C) phosphate-buffered saline containing 1% w/v bovine serum albumin (PBS/BSA). The radiopeptides (Cf = 1 nM in 1 mL PBS/BSA) were added to all wells. A subset of wells was also treated with an excess of unlabeled GRPR-binding peptide NOTA-PEG2-RM26 (Bjäreback et al. [2025]) (Cf = 1 µM in 1 mL PBS/BSA) to block GRPR. After incubation for 1 h at 37 °C, the supernatant was removed, and the cells were washed and then collected by treating them with 1 M NaOH. The activity of the collected samples was measured with the gamma counter. This assay was performed in triplicate for each radiopeptide.

PC-3 xenografts = assay: Biodistribution in mice bearing PC-3 xenografts; assay type: in vivo, Balb/c nu/nu mice; conditions: PC-3 xenografted mice, between 4 and 24 h pi
Method: (§1) Each mouse was xenografted with a subcutaneous injection of 8 × 10⁶ PC-3 cells in the right hind leg. After approximately 4 weeks, the animals were injected into the tail vein with 100 µL of radiopeptide (100 pmol—110–130 kBq, diluted in PBS/BSA). Four animals were used for each time point per peptide. […] At the determined time points, the mice were euthanized, organs were collected and weighed, and their activity content was measured in the gamma counter. Results were presented as the percentage of injected activity per gram (%IA/g) for the collected organs, and the percentage of injected activity (%IA) for the gastrointestinal tract (GI) and the carcass. […] Statistical analysis was performed with GraphPad Prism 10 using two way ANOVA with Tuckey’s or Šidák’a post hoc analysis.

[1] = Biodistribution in mice bearing PC-3 xenografts; assay type: in vivo, Balb/c nu/nu mice; conditions: mouse, total radioactivity; for tissue uptake at 4 h / tissue uptake dose at 4 h: 4 h pi; for tissue uptake at 24 h / tissue uptake dose at 24 h: 24 h pi
Method: as §1

[2] = In vivo stability: intact radiopeptide in peripheral mouse blood 5 min pi, radio-HPLC; conditions: for Percentage of intact peptide, Entresto: blood 5 min pi
Method: Two animals per peptide were injected intravenously with a bolus of test radioligand (50 MBq, 2 nmol of peptide in 100 μL PBS/EtOH v/v 9:1) – Control group. To inhibit NEP, additional groups of two mice per compound were orally treated with 12 mg Entresto® (Novartis, Basel, Switzerland) 30 min before receiving the intravenous injection—Entresto group. Five minutes post-injection (pi), the animals were euthanized, and the blood was collected and immediately mixed with EDTA (0.1 mM, 40 μL) in Eppendorf tubes on ice. The mixture was spun at 2000 g for 10 min at 4 °C in an Eppendorf Centrifuge 5430 R (Eppendorf AG, Hamburg, Germany), and the plasma was collected and diluted with an equal volume of MeCN (4 °C). After a second centrifugation at 15,000 g and 4 °C for 10 min, the supernatant was collected in an Eppendorf tube and concentrated to 50–100 μL at 50 °C using a mild stream of N2. PBS was added to the samples to reach a final volume of 200 μL, and the solutions were filtered through a syringe filter (0.22 μm, 13 mm, VWR International, Radnor, USA). The filtered solution was analyzed by reversed-phase radio-HPLC to determine the percentage of intact peptides. The peak corresponding to the intact peptide was identified by injection of an aliquot of the labeling solution.

[3] = Balb/c nu/nu, blood, iv, 100 pmol, PC-3 xenografted Balb/c nu/nu mice, iv 100 pmol, mean ± SD, n = 4, read-out: Blood activity uptake
[4] = Balb/c nu/nu, bone, iv, 100 pmol, PC-3 xenografted Balb/c nu/nu mice, iv 100 pmol, mean ± SD, n = 4, read-out: Bone activity uptake
[5] = Balb/c nu/nu, kidneys, iv, 100 pmol, PC-3 xenografted Balb/c nu/nu mice, iv 100 pmol, mean ± SD, n = 4, read-out: Kidneys activity uptake
[6] = Balb/c nu/nu, liver, iv, 100 pmol, PC-3 xenografted Balb/c nu/nu mice, iv 100 pmol, mean ± SD, n = 4, read-out: Liver activity uptake
[7] = Balb/c nu/nu, lungs, iv, 100 pmol, PC-3 xenografted Balb/c nu/nu mice, iv 100 pmol, mean ± SD, n = 4, read-out: Lungs activity uptake
[8] = Balb/c nu/nu, muscle, iv, 100 pmol, PC-3 xenografted Balb/c nu/nu mice, iv 100 pmol, mean ± SD, n = 4, read-out: Muscle activity uptake
[9] = Balb/c nu/nu, pancreas, iv, 100 pmol, PC-3 xenografted Balb/c nu/nu mice, iv 100 pmol, mean ± SD, n = 4, read-out: Pancreas activity uptake
[10] = Balb/c nu/nu, small intestine, iv, 100 pmol, PC-3 xenografted Balb/c nu/nu mice, iv 100 pmol, mean ± SD, n = 4, read-out: Small Int. activity uptake
[11] = Balb/c nu/nu, spleen, iv, 100 pmol, PC-3 xenografted Balb/c nu/nu mice, iv 100 pmol, mean ± SD, n = 4, read-out: Spleen activity uptake
[12] = Balb/c nu/nu, stomach, iv, 100 pmol, PC-3 xenografted Balb/c nu/nu mice, iv 100 pmol, mean ± SD, n = 4, read-out: Stomach activity uptake
[13] = Balb/c nu/nu, tumor, iv, 100 pmol, PC-3 xenografted Balb/c nu/nu mice, iv 100 pmol, mean ± SD, n = 4, read-out: Tumor activity uptake
[14] = carcass, PC-3 xenografted Balb/c nu/nu mice, iv 100 pmol, mean ± SD, n = 4, read-out: Body activity uptake
[15] = gastrointestinal tract with content, PC-3 xenografted Balb/c nu/nu mice, iv 100 pmol, mean ± SD, n = 4, read-out: GI activity uptake

With `CC(C)C[C@H](NC(=O)C[C@H](O)[C@H](CC(C)C)NC(=O)[C@H](Cc1c[nH]cn1)NC(=O)CN(C)C(=O)[C@@H](NC(=O)[C@H](C)NC(=O)[C@](C)(Cc1c[nH]c2ccccc12)NC(=O)[C@H](CCC(N)=O)NC(=O)[C@@H](Cc1ccccc1)NC(=O)CN1CCC(NC(=O)COCCOCCNC(=O)CCC(C(=O)O)N2CCN(CC(=O)O)CCN(CC(=O)O)CCN(CC(=O)O)CC2)CC1)C(C)C)C(N)=O` (stereo partly drawn) [[^177Lu]Lu-PKB2, metal not drawn] the “in vitro binding specificity” value (PC-3 cells; 1 nM radiopeptide, 1 h at 37 °C, block with 1 µM NOTA-PEG2-RM26, n = 3) was “GRPR-mediated activity uptake”, the “total cellular activity uptake (rank among the three radiopeptides)” value (PC-3 cells; 1 nM, 37 °C, n = 3) was “lowest” and the “tumor retention of activity” value (PC-3 xenografts) was “around 80%”. For the same compound, the tissue uptake at 2 h ([1]; Balb/c nu/nu, blood, iv, 100 pmol, PC-3 xenografted Balb/c nu/nu mice, iv 100 pmol, 2 h pi, mean ± SD, n = 4, read-out: Blood activity uptake) was 0.13 ± 0.05 %ID/g, the tissue uptake at 4 h [1, 3] was 0.07 ± 0.03 %ID/g and the tissue uptake at 24 h [1, 3] was 0.01 ± 0.01 %ID/g. The tissue uptake at 2 h ([1]; Balb/c nu/nu, blood, iv, PC-3 xenografted Balb/c nu/nu mice, iv 100 pmol, 2 h pi blocked (co-injected 100-fold molar excess NOTA-PEG2-RM26), mean ± SD, n = 3, read-out: Blood activity uptake) was 0.06 ± 0.02 %ID/g, the tissue uptake at 2 h ([1]; Balb/c nu/nu, blood, lungs, spleen, muscle, bone, iv, 100 pmol, PC-3 xenografted mice, 2 h pi, read-out: activity uptake in non-target organs (blood, lungs, spleen, muscle, and bone)) was less than 0.6 %ID/g and the tissue uptake at 2 h ([1]; Balb/c nu/nu, bone, iv, 100 pmol, PC-3 xenografted Balb/c nu/nu mice, iv 100 pmol, 2 h pi, mean ± SD, n = 4, read-out: Bone activity uptake) was 0.13 ± 0.07 %ID/g. It also gave a tissue uptake at 4 h [1, 4] of 0.14 ± 0.05 %ID/g, a tissue uptake at 24 h [1, 4] of 0.09 ± 0.04 %ID/g and a tissue uptake at 2 h ([1]; Balb/c nu/nu, bone, iv, PC-3 xenografted Balb/c nu/nu mice, iv 100 pmol, 2 h pi blocked (co-injected 100-fold molar excess NOTA-PEG2-RM26), mean ± SD, n = 3, read-out: Bone activity uptake) of 0.13 ± 0.03 %ID/g. For the same compound, the tissue uptake dose ([1]; Balb/c nu/nu, gastrointestinal tract with content, iv, 100 pmol, PC-3 xenografted mice, all time points (2, 4, 24 h pi), read-out: activity uptake for the GI with content) was less than 2 %ID, the tissue uptake at 2 h ([1]; Balb/c nu/nu, kidneys, iv, 100 pmol, PC-3 xenografted Balb/c nu/nu mice, iv 100 pmol, 2 h pi, mean ± SD, n = 4, read-out: Kidneys activity uptake) was 8.9 ± 2.5 %ID/g and the tissue uptake at 4 h [1, 5] was 9.5 ± 2.1 %ID/g. It also gave a tissue uptake at 24 h [1, 5] of 5.5 ± 0.6 %ID/g, a tissue uptake at 2 h ([1]; Balb/c nu/nu, kidneys, iv, PC-3 xenografted Balb/c nu/nu mice, iv 100 pmol, 2 h pi blocked (co-injected 100-fold molar excess NOTA-PEG2-RM26), mean ± SD, n = 3, read-out: Kidneys activity uptake) of 7.6 ± 1.2 %ID/g and a tissue uptake at 2 h ([1]; Balb/c nu/nu, liver, iv, 100 pmol, PC-3 xenografted Balb/c nu/nu mice, iv 100 pmol, 2 h pi, mean ± SD, n = 4, read-out: Liver activity uptake) of 0.24 ± 0.05 %ID/g. For the same compound, the tissue uptake at 4 h [1, 6] was 0.2 ± 0.03 %ID/g, the tissue uptake at 24 h [1, 6] was 0.14 ± 0.02 %ID/g and the tissue uptake at 2 h ([1]; Balb/c nu/nu, liver, iv, PC-3 xenografted Balb/c nu/nu mice, iv 100 pmol, 2 h pi blocked (co-injected 100-fold molar excess NOTA-PEG2-RM26), mean ± SD, n = 3, read-out: Liver activity uptake) was 0.2 ± 0.02 %ID/g. It also gave a tissue uptake at 4 h [1, 7] of 0.3 ± 0.2 %ID/g, a tissue uptake at 24 h [1, 7] of 0.07 ± 0.01 %ID/g and a tissue uptake at 2 h ([1]; Balb/c nu/nu, lungs, iv, PC-3 xenografted Balb/c nu/nu mice, iv 100 pmol, 2 h pi blocked (co-injected 100-fold molar excess NOTA-PEG2-RM26), mean ± SD, n = 3, read-out: Lungs activity uptake) of 0.21 ± 0.03 %ID/g. The tissue uptake at 2 h ([1]; Balb/c nu/nu, muscle, iv, 100 pmol, PC-3 xenografted Balb/c nu/nu mice, iv 100 pmol, 2 h pi, mean ± SD, n = 4, read-out: Muscle activity uptake) was 0.07 ± 0.06 %ID/g, the tissue uptake at 4 h [1, 8] was 0.05 ± 0.02 %ID/g and the tissue uptake at 24 h [1, 8] was 0.02 ± 0.01 %ID/g. It also gave a tissue uptake at 2 h ([1]; Balb/c nu/nu, muscle, iv, PC-3 xenografted Balb/c nu/nu mice, iv 100 pmol, 2 h pi blocked (co-injected 100-fold molar excess NOTA-PEG2-RM26), mean ± SD, n = 3, read-out: Muscle activity uptake) of 0.04 ± 0.01 %ID/g, a tissue uptake at 2 h ([1]; Balb/c nu/nu, pancreas, iv, 100 pmol, PC-3 xenografted Balb/c nu/nu mice, iv 100 pmol, 2 h pi, mean ± SD, n = 4, read-out: Pancreas activity uptake) of 7.3 ± 3 %ID/g and a tissue uptake at 4 h [1, 9] of 2.9 ± 1 %ID/g. The tissue uptake at 24 h [1, 9] was 0.43 ± 0.09 %ID/g, the tissue uptake at 2 h ([1]; Balb/c nu/nu, small intestine, iv, 100 pmol, PC-3 xenografted Balb/c nu/nu mice, iv 100 pmol, 2 h pi, mean ± SD, n = 4, read-out: Small Int. activity uptake) was 0.8 ± 0.5 %ID/g and the tissue uptake at 4 h [1, 10] was 0.5 ± 0.2 %ID/g. It also gave a tissue uptake at 24 h [1, 10] of 0.07 ± 0.04 %ID/g, a tissue uptake at 2 h ([1]; Balb/c nu/nu, small intestine, iv, PC-3 xenografted Balb/c nu/nu mice, iv 100 pmol, 2 h pi blocked (co-injected 100-fold molar excess NOTA-PEG2-RM26), mean ± SD, n = 3, read-out: Small Int. activity uptake) of 0.3 ± 0.1 %ID/g and a tissue uptake at 2 h ([1]; Balb/c nu/nu, spleen, iv, 100 pmol, PC-3 xenografted Balb/c nu/nu mice, iv 100 pmol, 2 h pi, mean ± SD, n = 4, read-out: Spleen activity uptake) of 0.15 ± 0.07 %ID/g. The tissue uptake at 4 h [1, 11] was 0.15 ± 0.06 %ID/g, the tissue uptake at 24 h [1, 11] was 0.11 ± 0.04 %ID/g and the tissue uptake at 2 h ([1]; Balb/c nu/nu, spleen, iv, PC-3 xenografted Balb/c nu/nu mice, iv 100 pmol, 2 h pi blocked (co-injected 100-fold molar excess NOTA-PEG2-RM26), mean ± SD, n = 3, read-out: Spleen activity uptake) was 0.12 ± 0.04 %ID/g. It also gave a tissue uptake at 4 h [1, 12] of 1.3 ± 0.2 %ID/g, a tissue uptake at 24 h [1, 12] of 0.14 ± 0.07 %ID/g and a tissue uptake at 2 h ([1]; Balb/c nu/nu, stomach, iv, PC-3 xenografted Balb/c nu/nu mice, iv 100 pmol, 2 h pi blocked (co-injected 100-fold molar excess NOTA-PEG2-RM26), mean ± SD, n = 3, read-out: Stomach activity uptake) of 0.36 ± 0.07 %ID/g. The tissue uptake at 2 h ([1]; Balb/c nu/nu, stomach, small intestines, iv, 100 pmol, PC-3 xenografted mice, 2 h pi, read-out: activity uptake in the stomach and small intestines) was less than 2.5 %ID/g, the tissue uptake at 2 h ([1]; Balb/c nu/nu, tumor, iv, 100 pmol, PC-3 xenografted Balb/c nu/nu mice, iv 100 pmol, 2 h pi, mean ± SD, n = 4, read-out: Tumor activity uptake) was 15.8 ± 3.7 %ID/g and the tissue uptake at 4 h [1, 13] was 15.3 ± 1.4 %ID/g. The tissue uptake at 24 h [1, 13] was 12.1 ± 1.3 %ID/g, the tissue uptake at 2 h ([1]; Balb/c nu/nu, tumor, iv, PC-3 xenografted Balb/c nu/nu mice, iv 100 pmol, 2 h pi blocked (co-injected 100-fold molar excess NOTA-PEG2-RM26), mean ± SD, n = 3, read-out: Tumor activity uptake) was 3.1 ± 0.9 %ID/g and the tissue uptake dose at 2 h ([1]; carcass, PC-3 xenografted Balb/c nu/nu mice, iv 100 pmol, 2 h pi, mean ± SD, n = 4, read-out: Body activity uptake) was 1.8 ± 1.3 %ID. The tissue uptake dose at 4 h [1, 14] was 2.3 ± 0.8 %ID, the tissue uptake dose at 24 h [1, 14] was 0.5 ± 0.1 %ID and the tissue uptake dose at 2 h ([1]; gastrointestinal tract with content, PC-3 xenografted Balb/c nu/nu mice, iv 100 pmol, 2 h pi, mean ± SD, n = 4, read-out: GI activity uptake) was 1.5 ± 0.4 %ID. The tissue uptake dose at 4 h [1, 15] was 0.7 ± 0.2 %ID, the tissue uptake dose at 24 h [1, 15] was 0.3 ± 0.2 %ID and the “Percentage of intact peptide, Entresto” value ([2]; NMRI mice, 12 mg Entresto orally 30 min before injection, recorded value n1) was 92%. For the same compound, the “Percentage of intact peptide, Entresto” value ([2]; NMRI mice, 12 mg Entresto orally 30 min before injection, recorded value n2) was 94%, the “Percentage of intact peptide, Entresto” value ([2]; healthy NMRI mice, 12 mg Entresto orally 30 min before iv injection (NEP inhibition), radio-HPLC, mean of n = 2) was 93% and the “Percentage of intact peptide, Control” value ([2]; healthy NMRI mice, iv 50 MBq, 2 nmol, peripheral blood 5 min pi, radio-HPLC, mean of n = 2) was 85% [81% - 90%].
